We go through 5 molecules from ChEMBL document CHEMBL5390258, “Recent Progress and Prospects of Small Molecules for NLRP3 Inflammasome Inhibition” (J Med Chem, 2023).

In data set [1] the target is T1, NACHT, LRR and PYD domains-containing protein 3 (Homo sapiens, UniProt Q96P20). Description: Inhibition of NLRP3 in human PBMC cells assessed as reduction in Il-1beta production preincubated for 0.5 hrs followed by LPS treatment for […] and further addition of ATP measured after 45 mins. The format is cell-based.
Data set [2] deals with T1, NACHT, LRR and PYD domains-containing protein 3. Description: Inhibition of NLRP3 in human PBMC cells assessed as reduction in TNFalpha level preincubated for 0.5 hrs followed by LPS treatment for […] and further addition of ATP measured after 45 mins. The format is cell-based.
Data set [3] shares this target. Description: Inhibition of NLRP3 in human THP-1 cells assessed as reduction in caspase 1 level. Type of data set: cell-based.
The target is the same in data set [4]. Nature of the data set: Inhibition of NLRP3 (unknown origin) assessed as reduction of IL-1beta production.
Data set [5] is described as follows: Lipophilicity, logP of the compound. The format is physicochemical. The settings on record: octanol/water.
The test system of another data set is THP-1. Description: Induction of pyroptosis in PMA-differentiated human THP-1 cells at 10 uM in presence of ATP by CytoTox 96 nonradioactive assay relative to control. Type of data set: functional.
A short description of data set [6]: Cytotoxicity against human THP-1 cells assessed as reduction in cell viability measured after 72 hrs by MTT assay. Type of data set: toxicity, cell-based. Conditions: read-out: TC50. (Tetrazolium assays rely on reduction of a dye to a coloured formazan, in cell work by metabolically active cells.)
Data set [7] addresses T1, NACHT, LRR and PYD domains-containing protein 3. Nature of the data set: Inhibition of NLRP3 in human PBMC cells assessed as reduction in IL-1beta production. Type of data set: cell-based.

pIC50: −log10 of the molar value.

T1 sequence (Q96P20 whole entry, the tested form may be a part): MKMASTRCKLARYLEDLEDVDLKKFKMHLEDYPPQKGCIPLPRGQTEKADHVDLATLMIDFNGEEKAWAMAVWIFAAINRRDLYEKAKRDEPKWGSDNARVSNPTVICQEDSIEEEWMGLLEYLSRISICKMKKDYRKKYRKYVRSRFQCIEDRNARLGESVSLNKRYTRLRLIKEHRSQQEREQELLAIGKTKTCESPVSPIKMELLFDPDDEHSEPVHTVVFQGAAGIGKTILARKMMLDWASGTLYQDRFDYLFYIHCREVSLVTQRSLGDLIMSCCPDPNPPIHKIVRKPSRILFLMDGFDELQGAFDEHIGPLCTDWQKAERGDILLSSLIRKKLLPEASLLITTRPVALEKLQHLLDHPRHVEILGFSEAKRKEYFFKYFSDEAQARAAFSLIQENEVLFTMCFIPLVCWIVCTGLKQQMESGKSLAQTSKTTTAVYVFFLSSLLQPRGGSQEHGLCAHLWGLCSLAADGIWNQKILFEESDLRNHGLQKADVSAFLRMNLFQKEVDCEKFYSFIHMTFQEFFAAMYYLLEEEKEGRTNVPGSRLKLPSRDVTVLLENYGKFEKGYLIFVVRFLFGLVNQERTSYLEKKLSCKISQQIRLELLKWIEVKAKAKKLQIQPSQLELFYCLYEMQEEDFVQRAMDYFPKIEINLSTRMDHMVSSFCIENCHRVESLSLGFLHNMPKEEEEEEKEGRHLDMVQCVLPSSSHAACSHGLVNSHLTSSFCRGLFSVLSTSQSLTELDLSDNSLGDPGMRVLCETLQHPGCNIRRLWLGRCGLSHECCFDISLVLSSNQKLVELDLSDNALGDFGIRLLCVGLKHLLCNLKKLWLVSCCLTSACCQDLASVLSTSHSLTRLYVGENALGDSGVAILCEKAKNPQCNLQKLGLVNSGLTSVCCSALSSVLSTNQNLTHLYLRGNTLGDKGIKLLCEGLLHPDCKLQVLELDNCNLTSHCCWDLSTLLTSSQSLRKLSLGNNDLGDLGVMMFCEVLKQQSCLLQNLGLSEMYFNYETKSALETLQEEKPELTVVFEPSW

As usually defined, the pIC50 is the negative decadic logarithm of the IC50, by convention in mol/L. Take `CC(C)c1nn(CC(=O)Nc2ccncn2)c(=O)c2cccn12`: the pIC50 in data set [1] and in data set [2] was less than 5.00 in each case. As for `C=CCN1C(=O)/C(=C2/C(=O)Nc3ccccc32)SC1=S`, in data set [3], the pIC50 was 6.30. For orientation: logP means the decadic logarithm of the partition coefficient of the neutral form, usually between octanol and water. The low end stands for lower lipophilicity, the high end for higher lipophilicity. In the case of `COc1ccc(Cl)cc1C(=O)NCCc1ccc(S(=O)(=O)NO)cc1`, in data set [4], the negative logarithm of the IC50 (pIC50) was 5.07. Further, the logP in data set [5] came out at 0.19. In the case of `C=C(Cc1ccccc1Cl)C(=O)NCCc1ccc(S(N)(=O)=O)cc1`, the Activity in the data set on THP-1 is 80.9%. The CC50 at 72 h in data set [6] was more than 100 µM. For `C=C1C(=O)[C@]23[C@H](O)[C@@H]1CC[C@H]2[C@@]12CO[C@@]3(O)[C@@H](O)[C@@H]1C(C)(C)CC[C@@H]2O`, in data set [7], the pIC50 is 5.29.
